Earlier results in patent publication US20090181905A1, “CRYSTALLINE FORM OF 1' -(1-METHYLETHYL)-4' -[(2-FLUORO-4-METHOXYPHENYL)METHYL]-5' -METHYL-1H-PYRAZOL-3' -O-BETA-D-GLUCOPYRANOSIDE, A METHOD FOR ITS PREPARATION AND THE USE THEREOF FOR PREPARING MEDICAMENTS” (BOEHRINGER INGELHEIM INTERNATIONAL GMBH, priority 2006, published 2009).

System: HbA1c
Conditions: metformin on its own, in the diabetic

SMILES: CN(C)C(=N)N=C(N)N [metformin]
- average improvement in the HbA1c value: 1.0-1.5%
